Experimental data published in patent US20150148551A1, “GENISTEIN FOR REDUCING LEVELS OF STORAGE COMPOUNDS IN THE TREATMENT AND/OR PREVENTION OF LYSOSOMAL STORAGE DISEASES (LSDS)” (3G THERAPEUTICS, INC., priority 2012, published 2015).

Assays:
Type in all cases: cell-based, human
CTSD = assay: DNA microarray, CTSD expression in fibroblasts exposed to genistein; details: for CTSD fold change Average: 48 h vs DMSO
Procedure: (§1) The experiments were conducted to characterise the transcriptomic profile of human fibroblast cells exposed to genistein, and in particular to determine the expression of genes encoding lysosomal enzymes involved in metabolism (i.e. synthesis and degradation) of organic substances. The absence or deficiency of these enzymes' activity is responsible for occurrence of various lysosomal storage diseases (LSD) (including MPS). The tested hypothesis assumed that genistein influences the expression of many genes, among which there are genes coding for enzymes required in metabolism of compounds, which are pathologically stored in LSD. The results provide important information regarding genistein action on the molecular level within the range of gene expression modulation by this substance. The experiment was conducted in biological quintuplicates. Human dermal fibroblasts (HDFa) were exposed in vitro for 1, 24 or 48 hours to: 30, 60 or 100 μM of genistein; 0.05% DMSO (K1); or were untreated (control cells) (K2), and total RNA was isolated and analysed.
(§2) Fibroblast cells were grown in Dulbecco (DMEM) medium supplemented with 10% fetal bovine serum (FBS) with the addition of 1% antibiotics and anti-fungal agents at 37° C. in humidified atmosphere of 5% CO2, until the required confluency was obtained.
(§3) To determine the effect of tested compound on the transcriptom of the fibroblast cells, the growth medium was replaced with fresh medium, either non-supplemented (0.05% DMSO), or containing genistein (30, 60 or 100 μM, in 0.05% DMSO). The exposure was done for 1, 24 or 48 hours.
(§4) Total RNA was isolated from fibroblasts using High Pure RNA Isolation Kit according to the protocol and then it was quantitatively evaluated using Quant-It™ RiboGreen® Assay Kit.
(§5) Biotinylated cRNA was prepared using Ambion Total PrepAmp Kit for Illumina arrays.
(§6) Standard hybridization and quantitative image analysis procedures—Illumina hybridization protocol and Illumina scanning protocol, were used.
(§7) Processing of the results was done during data definition, including: background correction (using background subtraction method), normalization (using quantile normalization algorithm with Illumina GenomeStudio software package: gene expression module version 1.9.0) and summarization (using method, which sums the values of signal intensities from a set of probes).

SMPD1 = assay: DNA microarray, SMPD1 expression in fibroblasts exposed to genistein; details: for SMPD1 fold change Average: 48 h vs DMSO
Procedure: as §1, §2, §3, §4, §5, §6, §7

GM2A = assay: DNA microarray, GM2A expression in fibroblasts exposed to genistein; details: for GM2A fold change Average: 48 h vs DMSO
Procedure: as §1, §2, §3, §4, §5, §6, §7

NAGLU = assay: DNA microarray, NAGLU expression in fibroblasts exposed to genistein; details: for NAGLU fold change Average: 48 h vs DMSO
Procedure: as §1, §2, §3, §4, §5, §6, §7

MCOLN1 = assay: DNA microarray, MCOLN1 expression in fibroblasts exposed to genistein; details: for MCOLN1 fold change Average: 48 h vs DMSO
Procedure: as §1, §2, §3, §4, §5, §6, §7

HYAL3 = assay: DNA microarray, HYAL3 expression in fibroblasts exposed to genistein; details: for HYAL3 fold change Average: 48 h vs DMSO
Procedure: as §1, §2, §3, §4, §5, §6, §7

GAA = assay: DNA microarray, GAA expression in fibroblasts exposed to genistein; details: for GAA fold change Average: 48 h vs DMSO
Procedure: as §1, §2, §3, §4, §5, §6, §7

ST3GAL2 = assay: DNA microarray, ST3GAL2 expression in fibroblasts exposed to genistein
Procedure: as §1, §2, §3, §4, §5, §6, §7

SMILES: O=c1c(-c2ccc(O)cc2)coc2cc(O)cc(O)c12 [genistein, 4′,5,7-trihydroxy-3-phenylchromen-4-one]
- CTSD fold change Average 1h30/1hK1 (CTSD; 30 μM, 1 h vs 0.05% DMSO): 0.9734 fold change
- CTSD fold change Average (CTSD; 30 μM): 1.3322 fold change
- CTSD fold change Average 1h60/1hK1 (CTSD; 60 μM, 1 h vs 0.05% DMSO): 1.119 fold change
- CTSD fold change Average (CTSD; 60 μM): 1.302 fold change
- CTSD fold change Average 1h100/1hK1 (CTSD; 100 μM, 1 h vs 0.05% DMSO): 1.018 fold change
- CTSD fold change Average (CTSD; 100 μM): 1.939 fold change
- SMPD1 fold change Average 1h30/1hK1 (SMPD1; 30 μM, 1 h vs 0.05% DMSO): 1.0078 fold change
- SMPD1 fold change Average (SMPD1; 30 μM): 1.2419 fold change
- SMPD1 fold change Average 1h60/1hK1 (SMPD1; 60 μM, 1 h vs 0.05% DMSO): 0.9831 fold change
- SMPD1 fold change Average (SMPD1; 60 μM): 1.457 fold change
- SMPD1 fold change Average 1h100/1hK1 (SMPD1; 100 μM, 1 h vs 0.05% DMSO): 1.012 fold change
- SMPD1 fold change Average (SMPD1; 100 μM): 1.673 fold change
- GM2A fold change Average 1h30/1hK1 (GM2A; 30 μM, 1 h vs 0.05% DMSO): 1.5655 fold change
- GM2A fold change Average (GM2A; 30 μM): 1.0452 fold change
- GM2A fold change Average 1h60/1hK1 (GM2A; 60 μM, 1 h vs 0.05% DMSO): 1.181 fold change
- GM2A fold change Average (GM2A; 60 μM): 1.612 fold change
- GM2A fold change Average 1h100/1hK1 (GM2A; 100 μM, 1 h vs 0.05% DMSO): 1.254 fold change
- GM2A fold change Average (GM2A; 100 μM): 1.536 fold change
- NAGLU fold change Average 1h30/1hK1 (NAGLU; 30 μM, 1 h vs 0.05% DMSO): 1.055 fold change
- NAGLU fold change Average (NAGLU; 30 μM): 1.1022 fold change
- NAGLU fold change Average 1h60/1hK1 (NAGLU; 60 μM, 1 h vs 0.05% DMSO): 1.061 fold change
- NAGLU fold change Average (NAGLU; 60 μM): 1.231 fold change
- NAGLU fold change Average 1h100/1hK1 (NAGLU; 100 μM, 1 h vs 0.05% DMSO): 1.037 fold change
- NAGLU fold change Average (NAGLU; 100 μM): 1.303 fold change
- MCOLN1 fold change Average 1h30/1hK1 (MCOLN1; 30 μM, 1 h vs 0.05% DMSO): 1.065 fold change
- MCOLN1 fold change Average 1h60/1hK1 (MCOLN1; 60 μM, 1 h vs 0.05% DMSO): 1.038 fold change
- MCOLN1 fold change Average (MCOLN1; 60 μM): 1.439 fold change
- MCOLN1 fold change Average 1h100/1hK1 (MCOLN1; 100 μM, 1 h vs 0.05% DMSO): 1.013 fold change
- MCOLN1 fold change Average (MCOLN1; 100 μM): 1.482 fold change
- HYAL3 fold change Average 1h30/1hK1 (HYAL3; 30 μM, 1 h vs 0.05% DMSO): 1.1887 fold change
- HYAL3 fold change Average (HYAL3; 30 μM): 0.8605 fold change
- HYAL3 fold change Average (HYAL3; 60 μM): 0.9492 fold change
- HYAL3 fold change Average 1h100/1hK1 (HYAL3; 100 μM, 1 h vs 0.05% DMSO): 1.141 fold change
- HYAL3 fold change Average (HYAL3; 100 μM): 1.001 fold change
- GAA fold change Average 1h30/1hK1 (GAA; 30 μM, 1 h vs 0.05% DMSO): 0.9686 fold change
- GAA fold change Average 1h60/1hK1 (GAA; 60 μM, 1 h vs 0.05% DMSO): 1.087 fold change
- GAA fold change Average (GAA; 60 μM): 1.763 fold change
- GAA fold change Average 1h100/1hK1 (GAA; 100 μM, 1 h vs 0.05% DMSO): 0.935 fold change
- GAA fold change Average (GAA; 100 μM): 1.955 fold change
- ST3GAL2 fold change Average 1h30/1hK1 (ST3GAL2; 30 μM, 1 h vs 0.05% DMSO): 1.155 fold change
- ST3GAL2 fold change Average 24h30/24hK1 (ST3GAL2; 30 μM, 24 h vs 0.05% DMSO): 0.7505 fold change
- ST3GAL2 fold change Average 48h30/48hK1 (ST3GAL2; 30 μM, 48 h vs 0.05% DMSO): 0.797 fold change
- ST3GAL2 fold change Average 1h60/1hK1 (ST3GAL2; 60 μM, 1 h vs 0.05% DMSO): 1.467 fold change
- ST3GAL2 fold change Average 24h60/24hK1 (ST3GAL2; 60 μM, 24 h vs 0.05% DMSO): 0.5068 fold change
- ST3GAL2 fold change Average 1h100/1hK1 (ST3GAL2; 100 μM, 1 h vs 0.05% DMSO): 1.338 fold change
- ST3GAL2 fold change Average 24h100/24hK1 (ST3GAL2; 100 μM, 24 h vs 0.05% DMSO): 0.6299 fold change
